From ChEMBL document CHEMBL1201862, “PubChem BioAssay data set” (2004)
Active and inactive are the calls of the source.

Tests used:
[1] = target: Luciferin 4-monooxygenase (Photinus pyralis, UniProt P08659); experiment: firefly luciferase enzyme inhibitors, dose response, biochemical, luminescence (AID 1891)
[2] = Luminescence Cell-Based Dose Confirmation HTS to Identify Inhibitors of Platelet Dense Granule Release. [Related pubchem assays: 1663 (Primary HTS), 1678 (Summary of Project)]; assay type: functional
cells [3] = assay type: functional, cell-based
cells [4] = assay type: functional, cell-based; remark: listed apart in the source
[5] = target: FAD-linked sulfhydryl oxidase ALR (Homo sapiens, UniProt P55789); experiment: inhibitors of human ALR sulfhydryl oxidase, dose response, biochemical, H2O2 detection, luminescence, cherry-pick (AID 493248)
Sequence of FAD-linked sulfhydryl oxidase ALR (P55789 whole entry): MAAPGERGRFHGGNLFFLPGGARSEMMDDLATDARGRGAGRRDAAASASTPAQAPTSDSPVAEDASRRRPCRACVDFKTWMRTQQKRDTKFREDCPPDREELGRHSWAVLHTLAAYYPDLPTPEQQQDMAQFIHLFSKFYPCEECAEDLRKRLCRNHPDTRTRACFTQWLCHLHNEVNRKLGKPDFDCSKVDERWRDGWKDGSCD

[6] = target: T1, Rac GTPase-activating protein 1 (Homo sapiens, UniProt Q9H0H5); experiment: MgcRacGAP GTPase-activating activity inhibitors, confirmation, biochemical, ADP Hunter fluorescence, primary and confirmatory (AID 624330); assay type: functional
T1 sequence (Q9H0H5 whole entry): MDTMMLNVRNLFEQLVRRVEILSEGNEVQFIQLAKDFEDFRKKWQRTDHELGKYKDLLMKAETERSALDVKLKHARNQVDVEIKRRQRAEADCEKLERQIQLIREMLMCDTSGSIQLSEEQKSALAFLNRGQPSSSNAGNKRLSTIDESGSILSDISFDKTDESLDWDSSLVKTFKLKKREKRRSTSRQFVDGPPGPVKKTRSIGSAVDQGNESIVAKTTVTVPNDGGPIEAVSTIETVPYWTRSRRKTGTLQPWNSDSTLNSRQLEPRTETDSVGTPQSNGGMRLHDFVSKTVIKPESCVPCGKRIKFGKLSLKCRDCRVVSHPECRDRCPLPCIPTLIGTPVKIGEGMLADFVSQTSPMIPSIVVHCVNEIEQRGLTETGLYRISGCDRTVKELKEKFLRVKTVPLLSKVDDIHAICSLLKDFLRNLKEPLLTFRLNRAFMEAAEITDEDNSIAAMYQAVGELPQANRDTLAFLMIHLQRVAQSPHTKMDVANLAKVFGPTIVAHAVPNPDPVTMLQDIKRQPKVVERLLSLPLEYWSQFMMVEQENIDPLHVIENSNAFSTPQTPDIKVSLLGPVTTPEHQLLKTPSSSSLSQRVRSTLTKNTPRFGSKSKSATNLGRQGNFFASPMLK

[7] = NIH-3T3 fibroblast cytotoxicity, dose response, cytotoxicity control, cell-based, fluorescence, Alamar Blue, secondary assay (AID 2327); assay type: functional;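 note: NIH-3T3 mouse fibroblasts cultured with fluconazole at 8 µg/mL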
[8] = C. albicans growth with fluconazole, confirmation, fluorescence, retest (AID 2467); assay type: functional, cell-based
[9] = target: T2, Polyadenylate-binding protein 1 (Homo sapiens, UniProt P11940); experiment: PABP1 MLLE–PAM2 interaction inhibitors, dose response, miRNA deadenylation inhibitor project, biochemical, fluorescence polarization, Cy5-PAM2 peptide, secondary (AID 602260); assay type: functional; conditions: read-out: IC50_Mean
T2 sequence (P11940 whole entry): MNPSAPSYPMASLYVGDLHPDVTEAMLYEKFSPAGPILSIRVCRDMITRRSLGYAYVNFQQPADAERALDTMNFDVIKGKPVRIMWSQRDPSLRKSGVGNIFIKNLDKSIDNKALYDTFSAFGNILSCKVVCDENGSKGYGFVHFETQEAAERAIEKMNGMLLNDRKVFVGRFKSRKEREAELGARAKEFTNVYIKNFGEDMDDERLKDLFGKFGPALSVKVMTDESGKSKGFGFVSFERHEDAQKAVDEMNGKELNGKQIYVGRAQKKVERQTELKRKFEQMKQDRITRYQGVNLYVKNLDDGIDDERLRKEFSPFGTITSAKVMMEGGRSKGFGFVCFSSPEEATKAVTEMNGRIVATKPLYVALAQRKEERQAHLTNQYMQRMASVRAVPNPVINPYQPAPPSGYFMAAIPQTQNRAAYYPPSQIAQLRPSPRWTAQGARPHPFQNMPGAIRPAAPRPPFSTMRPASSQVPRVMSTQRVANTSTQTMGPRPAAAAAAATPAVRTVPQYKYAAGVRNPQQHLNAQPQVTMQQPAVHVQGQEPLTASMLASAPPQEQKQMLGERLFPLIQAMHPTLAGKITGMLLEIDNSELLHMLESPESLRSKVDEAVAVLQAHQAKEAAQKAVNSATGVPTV

[10] = target: T2, Polyadenylate-binding protein 1; experiment: PABP1 MLLE–PAM2 binding inhibitor potency, dose response, biochemical, fluorescence polarization, FITC-PAM2 peptide (AID 602259); assay type: functional; conditions: read-out: IC50_Mean
[11] = target: T3, Ubiquitin-conjugating enzyme E2 N (Homo sapiens, UniProt P61088); assay type: functional;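 note: Dose-response confirmation in a TR-FRET assay detecting UBC13-driven polyubiquitin chain formation, inhibition measured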
T3 sequence (P61088 whole entry): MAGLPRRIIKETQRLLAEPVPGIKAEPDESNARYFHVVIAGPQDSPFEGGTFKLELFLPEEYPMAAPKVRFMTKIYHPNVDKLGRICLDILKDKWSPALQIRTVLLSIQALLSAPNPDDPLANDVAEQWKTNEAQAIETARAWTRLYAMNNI

[12] = inhibitors of intracellular T. cruzi replication, confirmation, NIH3T3 host cells, beta-gal luminescence (AID 2044); assay type: functional, cell-based;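 note: intracellular parasites grown in NIH/3T3 mouse fibroblasts as host cells; luminescent beta-galactosidase reporter signal from transgenic T. cruzi replicating inside host cells; inhibitors lower the luminescence signal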
[13] = cytotoxicity toward NIH3T3 fibroblasts, dose response, counter-screen, cell-based, ATP luminescence, mouse fibroblasts (AID 2010); assay type: functional;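 note: cells exposed to compound for about 90 hours before reading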
INS1 = experiment: beta cell apoptosis inhibitors, cytokine rescue, dose response, luminescence, retest (AID 449756); assay type: functional, cell-based; conditions: Rattus norvegicus;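 note: cell death triggered by IL-1 beta plus TNF-alpha plus IFN-gamma mixture; protective hits raise ATP signal compared with cytokine alone wells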
[14] = Luminescence Cell-Based Dose Retest to Confirm Inhibitors of Cancer Stem Cells. [Related pubchem assays (depositor defined):AID2717, AID2721]; assay type: functional; conditions: Homo sapiens
[15] = target: T4, Calpain-2 catalytic subunit (Sus scrofa, UniProt P43367); experiment: pig calpain II inhibitor potency, dose response, biochemical, fluorogenic peptide substrate (AID 1420); assay type: functional
T4 sequence (P43367 whole entry): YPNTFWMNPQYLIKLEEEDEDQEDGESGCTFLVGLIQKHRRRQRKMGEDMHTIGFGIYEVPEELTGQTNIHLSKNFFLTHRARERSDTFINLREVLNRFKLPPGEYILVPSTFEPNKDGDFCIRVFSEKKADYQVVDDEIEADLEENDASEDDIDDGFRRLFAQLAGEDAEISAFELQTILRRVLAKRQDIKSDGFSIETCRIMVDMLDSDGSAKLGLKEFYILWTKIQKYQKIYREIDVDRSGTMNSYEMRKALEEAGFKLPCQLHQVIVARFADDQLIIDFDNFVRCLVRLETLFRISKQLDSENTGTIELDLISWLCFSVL

[16] = target: T5, Heat shock factor protein 1 (Mus musculus, UniProt P38532); experiment: inhibition of MG132-induced HSE-luciferase signal, confirmation, cell-based, NIH3T3, luminescence, dose retest (AID 2382); assay type: functional;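 note: NIH3T3 fibroblasts with HSF1-driven luciferase reporter stressed by proteasome inhibitor MG132; luminescence from HSF1-driven luciferase expression after 8 hours of MG132 stress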
T5 sequence (P38532 whole entry): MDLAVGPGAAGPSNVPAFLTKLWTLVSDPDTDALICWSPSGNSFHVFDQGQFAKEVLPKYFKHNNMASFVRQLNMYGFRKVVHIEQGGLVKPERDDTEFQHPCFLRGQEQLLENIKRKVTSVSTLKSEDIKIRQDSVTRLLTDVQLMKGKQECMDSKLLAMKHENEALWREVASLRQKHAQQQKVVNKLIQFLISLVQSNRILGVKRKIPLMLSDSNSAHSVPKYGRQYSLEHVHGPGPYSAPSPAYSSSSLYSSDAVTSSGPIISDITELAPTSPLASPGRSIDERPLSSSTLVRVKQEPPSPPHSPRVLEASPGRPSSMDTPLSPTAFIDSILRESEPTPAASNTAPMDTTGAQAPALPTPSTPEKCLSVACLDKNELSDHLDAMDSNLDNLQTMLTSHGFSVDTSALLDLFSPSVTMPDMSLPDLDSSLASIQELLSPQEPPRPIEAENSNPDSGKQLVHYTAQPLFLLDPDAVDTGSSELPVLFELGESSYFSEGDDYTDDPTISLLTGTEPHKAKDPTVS

Sequence of Luciferin 4-monooxygenase (P08659 whole entry): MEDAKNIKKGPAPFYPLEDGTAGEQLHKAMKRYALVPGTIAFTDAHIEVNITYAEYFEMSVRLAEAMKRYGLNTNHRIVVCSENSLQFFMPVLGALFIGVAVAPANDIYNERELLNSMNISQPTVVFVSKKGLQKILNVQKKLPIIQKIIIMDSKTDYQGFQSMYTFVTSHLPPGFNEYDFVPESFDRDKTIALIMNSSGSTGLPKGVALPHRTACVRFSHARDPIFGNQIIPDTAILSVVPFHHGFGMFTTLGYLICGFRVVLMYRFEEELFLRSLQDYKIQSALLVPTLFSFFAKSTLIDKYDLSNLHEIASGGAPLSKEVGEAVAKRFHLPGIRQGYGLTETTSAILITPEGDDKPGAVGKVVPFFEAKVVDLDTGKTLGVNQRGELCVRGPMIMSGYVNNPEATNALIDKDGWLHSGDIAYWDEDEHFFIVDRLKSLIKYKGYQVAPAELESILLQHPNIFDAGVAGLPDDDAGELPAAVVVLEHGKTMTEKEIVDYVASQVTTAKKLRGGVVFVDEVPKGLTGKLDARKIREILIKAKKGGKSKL

For `CCCOC(=O)Nc1ccc(C(N)=O)cc1`, the EC50 [1] was > 112 µM (not active) and the EC50 [2] was > 112 µM (not active).

For `COc1ccccc1C(=O)Oc1ccccc1C(=O)Nc1ccccc1`, the EC50 (cells [3]) was > 350 µM (not active) and the EC50 (cells [4]) was 16.1 µM (active).

In the case of `O=C(CNCc1ccco1)Nc1ccc(N2CCCCCC2)cc1`, the AC50 [5] is reported as 0.224 µM (active) and the IC50 [6] is reported as 84.4 µM (active).

For `CC1(C)C2CCC1(C)C(OCC[N+](C)(C)CC(=O)OC1CCCCC1)C2` (stereo not drawn), the EC50 [7] was > 150 µM (inactive) and the EC50 [8] was 0.743 µM (active).

In the case of `Fc1ccc(F)c(C2=NN=C(NCC3CCCO3)SC2)c1` (stereo not drawn), the IC50 [9] is reported as > 66 µM (inactive) and the IC50 [10] is reported as > 66 µM (inactive).

For `Oc1[nH]c2ccc(Br)cc2c1N=NC(S)=NCC1CCCO1` (stereo not drawn), the IC50 [11] was > 20 µM (inactive), the EC50 [12] was 2.17 µM (active) and the EC50 [13] was > 60 µM (not active).

In the case of `CCCCc1nc2sc3c(O)ncnc3c2c2c1CCCC2`, the EC50 [1] is reported as > 112 µM (not active) and the EC50 [2] is reported as > 112 µM (not active).

With `COc1cccc(N(C(=O)c2snc(C(N)=O)c2N)C(C(=O)NCC2CCCO2)c2c[nH]c3ccccc23)c1` (stereo not drawn) the IC50 [11] was > 20 µM (inactive).

With `COc1cccc(OC)c1C(=O)Nc1ccc(N2CCCCC2)cc1` the AC50 [5] was 7.85 µM (active).

In the case of `COc1ccc(COCC(O)CN2CCC(CN3C(=O)c4cccc5cccc(c45)C3=O)CC2)cc1OC` (stereo not drawn), the IC50 [11] is reported as > 20 µM (inactive).

In the case of `O=C(Nc1ccc(-c2csc(Nc3cccc(C(F)(F)F)c3)n2)cc1)c1cc([N+](=O)[O-])cc(C(F)(F)F)c1`, the AC50 (INS1) is reported as 7.89 µM (active) and the AC50 [14] is reported as 1.4 µM (active).

For `N=C(N)NC(=N)Nc1ccc(SC(F)(F)F)cc1`, the AC50 (INS1) was 1.72 µM (active).

In the case of `CC(=O)c1cccc(NC(=O)CSC(=O)c2ccccc2)c1`, the EC50 (cells [3]) is reported as > 350 µM (not active) and the EC50 (cells [4]) is reported as > 350 µM (not active).

In the case of `Cc1ccc(Nc2c3c(nc4ccccc24)CCC3)cc1`, the AC50 (INS1) is reported as 8.95 µM (active), the EC50 (cells [3]) is reported as > 350 µM (not active) and the EC50 (cells [4]) is reported as > 350 µM (not active).

For `CCCCN1C(=O)NC(=O)/C(=C(\C)NCCc2ccccc2)C1=O`, the IC50 [15] was 17.7 µM (not active).

For `Cn1c(=O)c2c(ncn2CC(=O)Nc2cccc(S(=O)(=O)Nc3ccccc3F)c2)n(C)c1=O`, the IC50 [9] was > 66 µM (inactive), the EC50 [16] was > 195 µM (not active) and the IC50 [10] was > 66 µM (inactive).

In the case of `N=C(S)C(c1ccccc1)c1ncc(C(F)(F)F)cc1Cl` (stereo not drawn), the IC50 [9] is reported as > 66 µM (inactive) and the IC50 [10] is reported as > 66 µM (inactive).

With `CCCn1c(CCC(=O)O)ccc1-c1cccs1` the AC50 [5] was 8.5 µM (active).

In the case of `Nc1ccc2oc3ccc(N)cc3c(=O)c2c1`, the AC50 [5] is reported as 1.07 µM (active).

In the case of `O=C(CSCc1ccco1)c1cccs1`, the EC50 [1] is reported as > 112 µM (not active) and the EC50 [2] is reported as > 112 µM (not active).

With `O/N=C(\c1ccc2c(c1)OCCO2)C1CCCCC1` the IC50 [15] was 25.1 µM (not active).

In the case of `Sc1nncn1/N=C/c1cccc(Oc2ccccc2)c1`, the AC50 [5] is reported as 2.09 µM (active).
